Values quoted from earlier work as cited in US4375464A, “Antibiotic AY24,668 and process of preparation” (Ayerst, McKenna & Harrison Inc., priority 1981, dated 1983).

Tests used:
[1] = R. R. Martel et al., Can. J. Physiol., 55, 48 (1977)
Candida albicans [2] = test system: Candida albicans
Candida albicans [3] = test system: Candida albicans; remark: listed apart in the source

CO[C@H]1C[C@@H]2CC[C@@H](C)[C@@](O)(O2)C(=O)C(=O)N2CCCC[C@H]2C(=O)O[C@H]([C@H](C)C[C@@H]2CC[C@@H](O)[C@H](OC)C2)CC(=O)[C@H](C)/C=C(\C)[C@@H](O)[C@@H](OC)C(=O)[C@H](C)C[C@H](C)/C=C/C=C/C=C/1C [rapamycin]
immunosuppressant activity [1]: immunosuppressant activity | effectiveness against Candida albicans in vitro (Candida albicans [2]): particularly effective | effectiveness against Candida albicans in vivo (Candida albicans [3]): particularly effective
